Reference: US9814732B2, “Ulipristal acetate for prevention and treatment of breast tumors” (LABORATOIRE HRA-PHARMA, priority 2012, dated 2017)

Assays:
[1] = molecular target: T1, GR (Homo sapiens, UniProt P04150); test: GRE-Luc reporter gene transactivation in MCF-7 cells; format: cell-based; parameters: endogenous in cells; host or cells: MCF-7; conditions: MCF7, DEX 100 nM, test compound 100 nM, read-out: inhibition of DEX-induced luciferase transactivation (GRE-Luc)
T1 sequence (P04150 1-777): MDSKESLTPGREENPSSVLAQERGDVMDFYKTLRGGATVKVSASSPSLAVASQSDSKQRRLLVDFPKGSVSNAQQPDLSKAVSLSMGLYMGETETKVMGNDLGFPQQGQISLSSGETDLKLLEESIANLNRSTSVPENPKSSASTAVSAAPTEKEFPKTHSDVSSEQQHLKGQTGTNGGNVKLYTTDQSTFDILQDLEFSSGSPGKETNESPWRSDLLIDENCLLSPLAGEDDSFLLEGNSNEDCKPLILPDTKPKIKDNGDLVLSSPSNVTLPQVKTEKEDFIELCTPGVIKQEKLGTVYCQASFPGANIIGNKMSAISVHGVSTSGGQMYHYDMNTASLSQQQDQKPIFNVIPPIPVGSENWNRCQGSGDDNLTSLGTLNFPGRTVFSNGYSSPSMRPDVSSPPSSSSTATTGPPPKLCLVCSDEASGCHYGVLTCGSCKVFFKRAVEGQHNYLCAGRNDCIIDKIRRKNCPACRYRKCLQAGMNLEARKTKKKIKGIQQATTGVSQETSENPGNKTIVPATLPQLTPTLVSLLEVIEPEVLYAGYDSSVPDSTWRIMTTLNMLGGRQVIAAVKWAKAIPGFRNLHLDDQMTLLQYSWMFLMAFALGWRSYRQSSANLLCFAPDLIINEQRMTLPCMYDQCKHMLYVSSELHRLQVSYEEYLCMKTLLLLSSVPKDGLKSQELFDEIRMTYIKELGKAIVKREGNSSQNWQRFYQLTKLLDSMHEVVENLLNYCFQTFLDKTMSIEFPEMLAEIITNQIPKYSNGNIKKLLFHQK

[2] = molecular target: T1, GR; test: GRE-Luc reporter gene transactivation in HBE cells; format: cell-based; conditions: DEX 100 nM, test compound 100 nM, read-out: inhibition of DEX induced luciferase transactivation (GRE-Luc)
[3] = test system: HBCx-34 tumors; conditions: model characterisation; cited from earlier work
[4] = test system: hPR-A and hPR-B; test: MMTV-Luc reporter gene transactivation in HBE cells transfected with hPR-A and/or hPR-B; format: cell-based, human
Protocol: (§2) T-47D and MCF-7 cell lines were respectively maintained in RPMI 1640 and in DMEM medium supplemented with 10% fetal calf serum (PAA Laboratory, Les Mureaux, France). […] Normal human breast epithelial cell (HBE) primary cultures were obtained from 20 women (aged 17-50 years). […] HBE cells were maintained in HAM F10 medium (PAA Laboratory, Les Mureaux, France) containing hydrocortisone (5 ng/ml), Triiodo-L-thyronine (6.5 ng/ml), choleratoxin (10 ng/ml), transferrin (5 mg/ml), insulin (0.016 U/ml), epidermal growth factor (10 ng/ml) (Sigma, St Quentin Fallavier, France) and 5% human serum (Etablissement Français du Sang).
(§3) After seeding, cells were cultured for 24 h in serum and phenol red free medium. Then treatments were carried out in a phenol red free medium containing 5% dextran-charcoal stripped serum. […] Control cells were treated with ethanol, at 10 1:1000 final ethanol concentration alone as vehicle or E2 (10 nM).
(§4) Cells were transfected with reporter gene plasmids containing glucocorticoid and progesterone responsive elements (GRE/PRE): 1) the MMTV-Luc is a Mouse Mammary Tumor Virus Long Terminal Repeat promoter containing one GRE/PRE palindrome and three GRE/PRE hemi-palindromes upstream to firefly luciferase gene in pFC31 vector, 2) the GRELuc contains six copies of GRE/PRE palindrome upstream to firefly luciferase gene in pBL vector. When indicated, HBE cells were transfected with human PR isoforms hPR-A and hPR-B expression plasmids constructed in POP3 vectors. Rous Sarcoma Virus promoter upstream to beta galactosidase gene (pRSV-β-Gal) was transfected in each experiment as control. Transfections were performed according to the manufacturer instructions using Lipofectamine or Lipofectamine LTX Reagents (Invitrogen, Cergy-Pontoise, France) for breast cancer cell lines or HBE cells, respectively. After 24 h of transfection, breast cancer and HBE cells were treated with hormones for 24 h or 48 h, respectively. At the end of the experiment, cells were lysed and luciferase activity was determined using the Luciferase Assay System (Promega, Charbonnières-les-bains, France). Beta galactosidase activity was assessed using the Galacto Star kit (Applied Biosystems, Courtaboeuf, France) to normalize luciferase activity data.

[5] = test system: metastatic breast cancers; conditions: cited from earlier work; for disease stabilization / objective response rate: 123 postmenopausal women, second or third line, mifepristone or onapristone pooled
[6] = molecular target: T2, PR (Homo sapiens, UniProt P06401); test: MMTV-Luc reporter gene transactivation in T-47D cells; format: cell-based; parameters: constitutively expressed high amounts of PR (progesterone receptor); endogenous in cells; host or cells: T-47D
T2 sequence (P06401 1-933): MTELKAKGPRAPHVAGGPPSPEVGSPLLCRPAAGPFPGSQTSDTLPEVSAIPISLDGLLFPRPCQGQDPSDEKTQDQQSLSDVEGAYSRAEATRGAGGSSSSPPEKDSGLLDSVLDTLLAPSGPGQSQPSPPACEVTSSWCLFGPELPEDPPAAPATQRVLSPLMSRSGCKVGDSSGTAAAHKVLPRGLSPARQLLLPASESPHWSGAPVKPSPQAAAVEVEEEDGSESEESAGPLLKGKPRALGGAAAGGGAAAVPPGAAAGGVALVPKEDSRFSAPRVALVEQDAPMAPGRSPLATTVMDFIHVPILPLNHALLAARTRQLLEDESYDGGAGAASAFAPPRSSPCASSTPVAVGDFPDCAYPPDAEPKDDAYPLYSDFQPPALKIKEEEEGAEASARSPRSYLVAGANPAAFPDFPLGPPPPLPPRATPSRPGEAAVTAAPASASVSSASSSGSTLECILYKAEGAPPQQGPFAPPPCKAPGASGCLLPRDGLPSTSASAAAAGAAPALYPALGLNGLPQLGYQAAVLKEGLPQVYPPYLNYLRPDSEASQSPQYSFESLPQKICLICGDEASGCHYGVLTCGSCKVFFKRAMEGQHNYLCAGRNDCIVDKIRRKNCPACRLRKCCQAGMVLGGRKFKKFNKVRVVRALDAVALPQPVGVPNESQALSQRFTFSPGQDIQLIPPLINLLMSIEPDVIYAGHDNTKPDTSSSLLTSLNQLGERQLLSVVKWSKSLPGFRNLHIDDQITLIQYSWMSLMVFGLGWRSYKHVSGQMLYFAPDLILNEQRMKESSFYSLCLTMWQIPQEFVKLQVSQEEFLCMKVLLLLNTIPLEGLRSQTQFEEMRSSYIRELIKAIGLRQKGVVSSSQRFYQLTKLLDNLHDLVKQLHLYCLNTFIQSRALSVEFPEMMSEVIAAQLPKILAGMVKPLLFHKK
Protocol: as §2, §3, §4

[7] = test system: normal human breast tissues xenografts; test: Ki67 mitotic index in normal human breast tissue xenografted in athymic mice; format: in vivo; conditions: 28 days
Text: Breast tissues samples were obtained from 6 women (aged 29-42 years) undergoing surgery for reduction mammoplasty, with their informed consent according to the French law on clinical experimentation.
(§1) Four weeks old ovariectomized female NMRInu/nu 20 athymic mice were purchased from Janvier laboratory (Le Genest Saint Isle, France). Breast tissues samples were obtained from 6 women (aged 29-42 years). Human mammary gland tissue was cut into 2×2×2 mm fragments and 4 fragments were then subcutaneously xenografted onto the back of 4 mice per group. Four treatment groups were performed: control, E2, E2+P and E2+P+UPA. Treatments were administered by grafting steroid pellets onto the neck of each mouse. The experimental conditions were initially determined by using a dose range of hormones mixed with cholesterol into the pellets. Blood sample assays were performed after 2 weeks and 4 weeks of treatment to measure plasmatic hormonal concentrations. Finally, the dose of 0.3 mg for E2 and 20 mg for P and UPA were used, as it provides the expected blood concentrations. For the control groups, pellets containing only cholesterol were used. To reproduce menstrual cycle conditions, mice were grafted on the first day of experiment with cholesterol, E2 and/or UPA containing pellets and on the fourteen day with cholesterol or progesterone containing pellets in control and E2 groups, or in E+P and E2+P+UPA groups, respectively. Twenty eight days after the start of experiment, mice were sacrificed. Blood was collected for each mouse, and serum was frozen at −20° C. until hormone concentrations
Mitotic index was calculated using the Ki67 antibody, and was determined for each breast tissue grafted into mice. Immunohistochemical analyses were performed using the BOND-MAX workstation (Leica, Nanterre, France). Paraffin sections of breast tissue xenografts were de-waxed and rehydrated before antigen retrieval using citrate retrieval solution (pH 6.0) for Ki67 antibody or EDTA retrieval solution (pH 9.0) for PR and ERalpha antibodies, for 30 min. […]

[8] = Hormone concentrations in serum of pellet-treated athymic mice; format: in vivo; conditions: female, NMRI nu/nu athymic, mouse, other: steroid pellets grafted onto the neck, E2 0.3 mg pellet, day 28, read-out: concentration in mice serum (mean±SEM)
Protocol: as §1
Estradiol was measured by radioimmunoassay using Clinical Assays Estradiol-2 (Sorin Biomedica Diagnostics SpA, Saluggia, Italia). Progesterone levels were evaluated by UPLC-MSMS using Acquity UPLC and Quattro Premier XE (Waters, Milford Mass., USA).
UPA concentrations were measured using LC-MS/MS technique by MPI Research (State College, Pa., USA).

CNc1ccc([C@H]2C[C@@]3(C)[C@@H](CC[C@]3(OC(C)=O)C(C)=O)[C@@H]3CCC4=CC(=O)CCC4=C32)cc1 [CDB-3877]
inhibition at 0.1 µM [1]: 26.5 ± 9.1%
inhibition at 0.1 µM [2]: 18.1 ± 11.8%

CC(=O)O[C@@]12CO[C@@H]1C[C@H](O)[C@@]1(C)C(=O)[C@H](O)C3=C(C)[C@@H](OC(=O)[C@H](O)[C@@H](NC(=O)OC(C)(C)C)c4ccccc4)C[C@@](O)([C@@H](OC(=O)c4ccccc4)[C@H]21)C3(C)C [docetaxel]
responsiveness of the HBCx-34 tumor [3]: responsive

CC#C[C@]1(O)CC[C@H]2[C@@H]3CCC4=CC(=O)CCC4=C3[C@@H](c3ccc(N(C)C)cc3)C[C@@]21C [RU-486, mifepristone]
inhibition of P induced MMTV-Luc transactivation ([4]; HBE cells co-transfected with hPR-A and hPR-B, P 100 nM, antagonist 1 to 1000 nM): inhibited P induced MMTV11 Luc transactivation in a dose dependent manner from 1 000 to 10 nM
progestational agonist properties on reporter gene transcription ([4]; HBE cells, compound alone): did not exhibit progestational agonist properties
disease stabilization [5]: 43%
objective response rate [5]: 11%
side effects that stopped clinical studies [5]: anti-glucocorticoid
PR antagonist response on MMTV-Luc transactivation at 1 nM ([6]; P 100 nM, antagonist 1 nM): Partial antagonist responses
PR antagonist action on MMTV-Luc transactivation ([6]; P 100 nM, antagonist 1000 to 10 nM): potent PR antagonist actions from 1000 to 10 nM
progestational agonist properties on reporter gene transcription ([6]; compound alone): did not exhibit progestational agonist properties

CCCCCOC(=O)Nc1nc(=O)n([C@@H]2O[C@H](C)[C@@H](O)[C@H]2O)cc1F [capecitabine]
responsiveness of the HBCx-34 tumor [3]: responsive

CN(C)c1ccc([C@H]2C[C@]3(C)[C@@H](CC[C@]3(O)CCCO)[C@@H]3CCC4=CC(=O)CCC4=C32)cc1 [onapristone]
disease stabilization [5]: 43%
objective response rate [5]: 11%
side effects that stopped clinical studies [5]: liver toxic

C[C@]12CC[C@@H]3c4ccc(O)cc4CC[C@H]3[C@@H]1CC[C@@H]2O [E2, 17β estradiol]
proliferative activity (Ki67) in lobules ([7]; E2 treated group vs control group): slightly but not significantly increased
mitotic index (Ki67) in ducts ([7]; E2 treated group, p<0.05): 3.1±0.7 fold induction compared to the control group
concentration at 28 days [8]: 0.0369 ± 0.00425 ng/mL
